Consider 16 compounds from patent US20250051346A1 (priority 2021, published 2025).

For assay [1], the system named is 5HT2A sensor. The format is cell-based.
The test system of assay [2] is 5HT2A sensor. The class given is cell-based. The source holds these as a separate data set.
In assay [3] the target is T1, 5-HT2A (Homo sapiens, UniProt P28223). The assay is described as follows: Serotonin 5-HT2A in vitro cellular IPOne antagonism assay. The format is cell-based. Further details: host or cells: CHO-K1. The settings on record: CHO-K1 cells; reference agonist a-Me-5HT. How it is done:
Serotonin 5-HT2A In Vitro Cellular IPOne Antagonism Assay. The 5-HT2A IPOne HTRF assay was performed at Epics Therapeutics S.A. (Belgium, FAST-0505I) in antagonism mode using conventional methods. Briefly, CHO-K1 cells expressing human recombinant 5-HT2A receptor grown to mid-log phase in culture media without antibiotics were detached with PBS-EDTA, centrifuged, and resuspended in medium without antibiotics buffer. 20,000 cells are distributed in a 96 well plate and incubated overnight at 37° C. with 5% CO2.
For antagonist testing, a reference agonist a-Me-5HT was added and fluorescence signal monitored for several minutes, followed by addition of 20 μl of assay buffer plus 20 μl of test compound or reference antagonist ketanserin, in each well. The plate was incubated for 60 min. at 37° C. with 5% CO2.
After addition of the lysis buffer containing IP1-d2 and anti-IP1 cryptate detection reagents, plates were incubated 1-hour at room temperature, and fluorescence ratios are measured according to the manufacturer specification, with the HTRF kit.

Assay [4] addresses T1, 5-HT2A. The assay is described as follows: Serotonin 5-HT2A in vitro radioligand binding competition assay. Also noted: purchased Epics Therapeutics S.A. (Belgium), contract assay FAST-0505B; host or cells: membrane extracts. The settings on record: [3H]-DOI radiotracer, membrane extracts, read-out: 5HT2A R[…] ACTIVITY
The method, then:
Serotonin 5-HT2A In Vitro Radioligand Binding Competition Assay. The 5-HT2A radioligand binding competition assay was performed at Epics Therapeutics S.A. (Belgium, FAST-0505B) using conventional methods. Briefly, competition binding was performed in duplicate in the wells of a 96 well plate (Master Block, Greiner, 786201) containing binding buffer (optimized for each receptor), membrane extracts (amount of protein/well optimized for each receptor), radiotracer [^3H]-DOI (final concentration optimized for each receptor) and test compound. Nonspecific binding was determined by co-incubation with 200-fold excess of cold competitor. The samples were incubated in a final volume of 0.1 ml at a temperature and for a duration optimized for each receptor and then filtered over filter plates. Filters were washed six times with 0.5 ml of ice-cold washing buffer (optimized for each receptor) and 50 μl of Microscint 20 (Packard) were added in each well. The plates were incubated 15 min on an orbital shaker and then counted with a TopCount™ for 1 min/well.

Assay [5] addresses T1, 5-HT2A. The assay is described as follows: Serotonin 5-HT2A in vitro cellular IPOne agonism assay. Also noted: host or cells: CHO-K1. Conditions: CHO-K1 cells, 60 min. The format is cell-based. How it is done:
Serotonin 5-HT2A In Vitro Cellular IPOne Agonism Assay. The 5-HT2A IPOne HTRF assay was performed at Epics Therapeutics S.A. (Belgium, FAST-0505I) using conventional methods. Briefly, CHO-K1 cells expressing human recombinant 5-HT2A receptor grown to mid-log phase in culture media without antibiotics were detached with PBS-EDTA, centrifuged, and resuspended in medium without antibiotics buffer. 20,000 cells are distributed in a 96 well plate and incubated overnight at 37° C. with 5% CO2.
For agonist testing, the medium was removed and 20 μl of assay buffer plus 20 μl of test compound or reference agonist were added in each well. The plate was incubated for 60 min. at 37° C. with 5% CO2.
After addition of the lysis buffer containing IP1-d2 and anti-IP1 cryptate detection reagents, plates were incubated 1-hour at room temperature, and fluorescence ratios were measured according to the manufacturer specification, with the HTRF kit.

The test system of the next assay is mice. Conditions: mouse, in vivo.

T1 sequence (P28223 whole entry): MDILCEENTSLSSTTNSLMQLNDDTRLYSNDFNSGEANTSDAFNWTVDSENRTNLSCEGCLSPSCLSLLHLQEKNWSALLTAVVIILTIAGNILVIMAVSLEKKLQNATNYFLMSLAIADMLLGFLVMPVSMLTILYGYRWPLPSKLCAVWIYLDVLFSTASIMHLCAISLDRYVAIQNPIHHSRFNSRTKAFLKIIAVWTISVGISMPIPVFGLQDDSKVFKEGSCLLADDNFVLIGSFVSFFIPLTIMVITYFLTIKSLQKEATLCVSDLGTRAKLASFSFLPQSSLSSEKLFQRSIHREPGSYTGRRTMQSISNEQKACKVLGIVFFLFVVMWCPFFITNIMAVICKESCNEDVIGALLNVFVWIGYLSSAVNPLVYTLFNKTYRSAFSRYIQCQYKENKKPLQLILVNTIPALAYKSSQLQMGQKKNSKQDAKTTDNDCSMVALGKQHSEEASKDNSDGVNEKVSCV

Regarding `CCN(CC)C(=O)[C@@H]1C=C2c3cccc4[nH]cc(c34)C[C@H]2N(C)C1` [LSD], in the assay on 5HT2A sensor [1], the “activation of the 5HT2A sensor assay” value is on record as “activate the 5HT2A sensor assay in agonist mode”.
With `CCN(CC)CCc1c[nH]c2cc(F)ccc12` [Compound 6-F-DET, 6-F-DET], the “competition with 5-HT at 5HT2A in the sensor assay” value (“competition with 5-HT at 5HT2A” for short) in the assay on 5HT2A sensor [2] is reported as “can compete with 5HT binding to 5HT2A”. Also, in the assay with 5HT2A sensor [1], the “activation of the 5HT2A sensor assay” value is on record as “do not activate the 5HT2A sensor assay in agonist mode”.
The term EC50 denotes the midpoint of the concentration-response curve. A higher EC50 goes with a less potent agent. On to `c1ccc2c3c(sc2c1)CCN(C1CCC1)CC3` [Compound 73, 3-cyclobutyl-2,3,4,5-tetrahydro-1H-benzo[4,5]thieno[2,3-d]azepine], for which the IC50 at 5-HT2A [3] and at 5-HT2A [4] (benzothiophenes) was 0.101 to 1 µM in each case. In addition, the EC50 on 5-HT2A [5] (benzothiophenes) was > 10 µM.
With `CN(C)CCc1c[nH]c2ccccc12` [DMT, N,N-dimethyltryptamine], in the assay on 5HT2A sensor [1], the “activation of the 5HT2A sensor assay” value is reported as “activate the 5HT2A sensor assay in agonist mode”.
As to `c1ccc(COc2cccc3oc4c(c23)CCNCC4)cc1` [Compound 47, 10-(benzyloxy)-2,3,4,5-tetrahydro-1H-benzofuro[2,3-d]azepine], the IC50 on 5-HT2A [3] and on 5-HT2A [4] (benzofurans) was 0.101 to 1 µM in each case. The compound further returned an EC50 at 5-HT2A [5] (benzofurans) of 1 to 10 µM.
For the compound L-MDMA, the “activation of the 5HT2A sensor assay” value with 5HT2A sensor [1] is listed as “do not activate the 5HT2A sensor assay in agonist mode”.
Regarding `CN1CCc2oc3cc(F)ccc3c2CC1` [Compound 23, 8-fluoro-3-methyl-2,3,4,5-tetrahydro-1H-benzofuro[2,3-d]azepine], the IC50 on 5-HT2A [3] and on 5-HT2A [4] (benzofurans) was 0.101 to 1 µM throughout. Further, the EC50 at 5-HT2A [5] (benzofurans) is 0.101 to 1 µM.
As to R-MDMA, in the assay on 5HT2A sensor [1], the “activation of the 5HT2A sensor assay” value is recorded as “do not activate the 5HT2A sensor assay in agonist mode”.
Take `COc1ccc2c3c(sc2c1)CCN(C)CC3` [Compound 34, 8-methoxy-3-methyl-2,3,4,5-tetrahydro-1H-benzo[4,5]thieno[2,3-d]azepine]: the IC50 at 5-HT2A [3] is 0.101 to 1 µM; on 5-HT2A [4] (benzothiophenes), 1 to 10 µM. The compound further returned an EC50 at 5-HT2A [5] (benzothiophenes) of 1 to 10 µM.
As for DOI, the “activation of the 5HT2A sensor assay” value in the assay on 5HT2A sensor [1] is “activate the 5HT2A sensor assay in agonist mode”.
On to 5-MeO-DMT [Compound 5-MeO-DMT], for which the “head-twitch response (HTR)” value with mice was “robust, dose-dependent head-twitch response”. The “activation of the 5HT2A sensor assay” value in the assay on 5HT2A sensor [1] is given as “activate the 5HT2A sensor assay in agonist mode”.
Regarding `CN1CCc2sc3cc(OC(F)(F)F)ccc3c2CC1` [Compound 75, 3-methyl-8-(trifluoromethoxy)-2,3,4,5-tetrahydro-1H-benzo[4,5]thieno[2,3-d]azepine], the IC50 fell in the range of 0.101 to 1 µM at 5-HT2A [3] and 1 to 10 µM on 5-HT2A [4] (benzothiophenes). Also, the EC50 on 5-HT2A [5] (benzothiophenes) is > 10 µM.
As for `CN1CCc2oc3ccccc3c2CC1` [Compound 30, 3-methyl-2,3,4,5-tetrahydro-1H-benzofuro[2,3-d]azepine], the IC50 on 5-HT2A [3] and at 5-HT2A [4] (benzofurans) was 0.101 to 1 µM in each case. The EC50 on 5-HT2A [5] (benzofurans) is > 10 µM.
With `COc1cccc2oc3c(c12)CN(C1CCC1)CCC3` [Compound 14, 2-cyclobutyl-10-methoxy-2,3,4,5-tetrahydro-1H-benzofuro[3,2-c]azepine], the IC50 on 5-HT2A [3] lay within 0.101 to 1 µM; at 5-HT2A [4] (benzofurans) it was 1 to 10 µM. On 5-HT2A [5] (benzofurans), this compound registered an EC50 of 1 to 10 µM.
On to `O=C(c1ccc(F)cc1)C1CCN(CCn2c(=O)[nH]c3ccccc3c2=O)CC1` [Ketanserin], for which, in the assay on 5HT2A sensor [2], the “competition with 5-HT at 5HT2A” value is given as “can compete with 5HT binding to 5HT2A”. Besides, in the assay on 5HT2A sensor [1], the “activation of the 5HT2A sensor assay” value is on record as “do not activate the 5HT2A sensor assay in agonist mode”.
Take `CCN(CC)C(=O)[C@@H]1C=C2c3cccc4[nH]c(Br)c(c34)C[C@H]2N(C)C1` [BOL148]: in the assay on 5HT2A sensor [2], the “competition with 5-HT at 5HT2A” value is on record as “can compete with 5HT binding to 5HT2A”. The “activation of the 5HT2A sensor assay” value in the assay with 5HT2A sensor [1] is “do not activate the 5HT2A sensor assay in agonist mode”.
